From patent US5668133A, “Ophthalmic compositions comprising emedastine and methods for their use” (priority 1995, dated 1997)

What was measured:
[1] = system: passive anaphylaxis in guinea pig conjunctiva; assay: passive conjunctival anaphylaxis, i.v. antigen challenge; type: in vivo
Procedure: (§1) Male Dunkin Hartley Viral Antibody Free outbred guinea pigs (Charles River Labs, Portage, Mich.), weighing approximately 250-350 grams (6/group) were injected intravenously (i.v.) via the marginal ear vein with 1.0 mL of Evans Blue dye (1.0 mg/mL). Forty-five (45) minutes post dye injection, 20 μL of test compound or saline vehicle was applied topically to one eye of each experimental animal. Thirty minutes following topical drug application, the guinea pigs were anesthetized and challenged subconjunctivally with histamine (300 ng/10 μL). Responses were quantitated as described by Yanni et al. in Int. Arch. Allergy Immunol., 101:102-106 (1993). Response scores from the treated groups were then compared with scores obtained in the saline-treated group using Dunnett's t test (Dunnett C. W., "A multiple comparison procedure for comparing treatments with a control." J. Am. Stat. Assoc. 50:1096-1121(1955)). Regression analysis was used to determine relative potency (Bliss, C. and E. Gjorgy. In Vitamin Methods, Vol. 2, pp. 445-610, Academic Press, Inc., New York, 1951.).
Emedastine difumarate was evaluated for its ability to inhibit a passive conjunctival immediate hypersensitivity response following topical ocular administration.
Guinea pigs (5-8/group) were passively sensitized with anti-ovalbumin serum injected subconjunctivally in one eye. Twenty-four hours after passive sensitization, ovalbumin (OA) was administered either i.v. or topically to the eye.
The allergic response following i.v. antigen challenge was assessed as follows: thirty minutes prior to challenge, animals received 20 μL of emedastine difumarate or saline applied topically to the eye. Guinea pigs were then challenged i.v. via the marginal ear vein with 1.0 mL of a solution containing 100 μg of OA and 1 mg of Evans Blue dye. Responses were quantitated as previously described in Example 2.

[2] = system: histamine-induced vascular permeability in guinea pig conjunctiva; assay: histamine-induced vascular permeability in guinea pig conjunctiva, topical ocular pretreatment; type: in vivo, guinea pig (Male Dunkin Hartley); details: for Wheal Area × Intensity: 1 min pretreatment
Procedure: The topical ocular antihistaminic effect of emedastine difumarate was assessed in a model of histamine induced vascular permeability in guinea pig conjunctiva. The potency of emedastine difumarate in this model was then compared with those of reference antihistamines.
as §1, with “Thirty minutes following topical drug application, the guinea pigs were anesthetized and challenged subconjunctivally with histamine (300 ng/10 μL).” left out

[3] = i.v. antigen challenge, 30 min before challenge
[4] = topically 1 minute before histamine challenge

## CCOCCn1c(N2CCCN(C)CC2)nc2ccccc21 [Emedastine Difumarate, 1-(2-ethoxyethyl)-2-(4-methyl-1-homopiperazinyl)-benzimidazole]
[1]; 0.001% and 0.01% solutions, 30 minutes before i.v. antigen challenge
  reduction of the allergic response: significant reductions of the allergic response
[1]; i.v. antigen challenge, 0.0001 wt %, 30 min before challenge
  % Change: -41%
[1]; i.v. antigen challenge, 0.001 wt %, 30 min before challenge
  % Change: -66%
[1]; i.v. antigen challenge, 0.01 wt %, 30 min before challenge
  % Change: -96%
[1]; [3]
  ED50: 0.00022 wt %
  ED50 (text): 0.00022%
[2]; 0.0001 wt %, antazoline experiment (NaCl 285 ± 19)
  Wheal Area × Intensity: 159 ± 31
[2]; 0.0001 wt %, ketotifen/pheniramine experiment (NaCl 276 ± 10)
  Wheal Area × Intensity: 159 ± 26
[2]; 0.0001 wt %, pyrilamine experiment (NaCl 308 ± 20)
  Wheal Area × Intensity: 166 ± 14
[2]; 0.001 wt %, antazoline experiment (NaCl 285 ± 19)
  Wheal Area × Intensity: 109 ± 14
[2]; 0.001 wt %, ketotifen/pheniramine experiment (NaCl 276 ± 10)
  Wheal Area × Intensity: 141 ± 38
[2]; 0.001 wt %, pyrilamine experiment (NaCl 308 ± 20)
  Wheal Area × Intensity: 104 ± 20
[2]; 0.01 wt %, antazoline experiment (NaCl 285 ± 19)
  Wheal Area × Intensity: 55 ± 12
[2]; 0.01 wt %, ketotifen/pheniramine experiment (NaCl 276 ± 10)
  Wheal Area × Intensity: 45 ± 18
[2]; 0.01 wt %, levocabastine experiment (NaCl 336 ± 78)
  Wheal Area × Intensity: 26 ± 27
[2]; 0.01 wt %, pyrilamine experiment (NaCl 308 ± 20)
  Wheal Area × Intensity: 57 ± 16
[2]; 1 minute prior to histamine challenge
  ED50 (text): 0.0002%
[2]; 1 minute, 30 minutes, 2, 4 or 8 hours prior to challenge
  inhibition of the vascular permeability response: inhibited in concentration-dependent fashion
[2]; 30 min pretreatment, 0.000001 wt %, clemastine experiment (NaCl 350 ± 31)
  Wheal Area × Intensity (X ± S.D.): 265 ± 35
[2]; 30 min pretreatment, 0.000006 wt %, ketotifen experiment (NaCl 214 ± 41)
  Wheal Area × Intensity (X ± S.D.): 154 ± 62
[2]; 30 min pretreatment, 0.000006 wt %, pyrilamine experiment (NaCl 194 ± 41)
  Wheal Area × Intensity (X ± S.D.): 136 ± 42
[2]; 30 min pretreatment, 0.00001 wt %, antazoline experiment (NaCl 287 ± 20)
  Wheal Area × Intensity (X ± S.D.): 197 ± 57
[2]; 30 min pretreatment, 0.00001 wt %, brompheniramine experiment (NaCl 219 ± 20)
  Wheal Area × Intensity (X ± S.D.): 191 ± 48
[2]; 30 min pretreatment, 0.00001 wt %, chlorpheniramine experiment (NaCl 217 ± 35)
  Wheal Area × Intensity (X ± S.D.): 161 ± 68
[2]; 30 min pretreatment, 0.00001 wt %, clemastine experiment (NaCl 350 ± 31)
  Wheal Area × Intensity (X ± S.D.): 165 ± 30
[2]; 30 min pretreatment, 0.00001 wt %, diphenhydramine experiment (NaCl 214 ± 34)
  Wheal Area × Intensity (X ± S.D.): 163 ± 32
[2]; 30 min pretreatment, 0.00001 wt %, levocabastine/pheniramine experiment (NaCl 252 ± 30)
  Wheal Area × Intensity (X ± S.D.): 191 ± 27
[2]; 30 min pretreatment, 0.00006 wt %, ketotifen experiment (NaCl 214 ± 41)
  Wheal Area × Intensity (X ± S.D.): 91 ± 26
[2]; 30 min pretreatment, 0.00006 wt %, pyrilamine experiment (NaCl 194 ± 41)
  Wheal Area × Intensity (X ± S.D.): 75 ± 22
[2]; 30 min pretreatment, 0.0001 wt %, antazoline experiment (NaCl 287 ± 20)
  Wheal Area × Intensity (X ± S.D.): 65 ± 32
[2]; 30 min pretreatment, 0.0001 wt %, brompheniramine experiment (NaCl 219 ± 20)
  Wheal Area × Intensity (X ± S.D.): 104 ± 47
[2]; 30 min pretreatment, 0.0001 wt %, chlorpheniramine experiment (NaCl 217 ± 35)
  Wheal Area × Intensity (X ± S.D.): 112 ± 58
[2]; 30 min pretreatment, 0.0001 wt %, clemastine experiment (NaCl 350 ± 31)
  Wheal Area × Intensity (X ± S.D.): 70 ± 27
[2]; 30 min pretreatment, 0.0001 wt %, diphenhydramine experiment (NaCl 214 ± 34)
  Wheal Area × Intensity (X ± S.D.): 98 ± 22
[2]; 30 min pretreatment, 0.0001 wt %, levocabastine/pheniramine experiment (NaCl 252 ± 30)
  Wheal Area × Intensity (X ± S.D.): 137 ± 24
[2]; 30 min pretreatment, 0.0006 wt %, ketotifen experiment (NaCl 214 ± 41)
  Wheal Area × Intensity (X ± S.D.): 16 ± 14
[2]; 30 min pretreatment, 0.0006 wt %, pyrilamine experiment (NaCl 194 ± 41)
  Wheal Area × Intensity (X ± S.D.): 6 ± 7
[2]; 30 min pretreatment, 0.001 wt %, antazoline experiment (NaCl 287 ± 20)
  Wheal Area × Intensity (X ± S.D.): 4 ± 4
[2]; 30 min pretreatment, 0.001 wt %, brompheniramine experiment (NaCl 219 ± 20)
  Wheal Area × Intensity (X ± S.D.): 8 ± 9
[2]; 30 min pretreatment, 0.001 wt %, chlorpheniramine experiment (NaCl 217 ± 35)
  Wheal Area × Intensity (X ± S.D.): 18 ± 23
[2]; 30 min pretreatment, 0.001 wt %, clemastine experiment (NaCl 350 ± 31)
  Wheal Area × Intensity (X ± S.D.): 6 ± 7
[2]; 30 min pretreatment, 0.001 wt %, diphenhydramine experiment (NaCl 214 ± 34)
  Wheal Area × Intensity (X ± S.D.): 12 ± 19
[2]; 30 min pretreatment, 0.001 wt %, levocabastine/pheniramine experiment (NaCl 252 ± 30)
  Wheal Area × Intensity (X ± S.D.): 7 ± 9
[2]; 30 min pretreatment, relative to emedastine difumarate = 1.0, (95% Confidence limits)
  Potency: 1.0
[2]; 30 minute treatment interval
  potency compared to ketotifen: equipotent
  times more potent than brompheniramine: 7 times
  times more potent than chlorpheniramine: 7 times
  times more potent than clemastine: 10 times
  times more potent than diphenhydramine: 3333 times
  times more potent than levocabastine: 100 times
  times more potent than pyrilamine: 10 times
[2]; 30 minute treatment interval, approximate, lack of parallelism
  times more potent than pheniramine: approximately 357 times
[2]; 30 minutes prior to histamine challenge
  ED50 (text): 0.000035%
[2]; 2 hours prior to histamine challenge
  ED50 (text): 0.0029%
[2]; 4 hours prior to histamine challenge
  ED50 (text): 0.019%
[2]; 8 hours prior to histamine challenge
  ED50 (text): 0.19%
[2]; pretreatment 1 min
  ED50: 0.0002 wt %
[2]; pretreatment 1 min, 0.0001 wt %
  Percent Change: -44%
[2]; pretreatment 1 min, 0.001 wt %
  Percent Change: -62%
[2]; pretreatment 1 min, 0.01 wt %
  Percent Change: -81%
[2]; pretreatment 30 min
  ED50: 0.000035 wt %
[2]; pretreatment 30 min, 0.000006 wt %
  Percent Change: -28%
[2]; pretreatment 30 min, 0.00006 wt %
  Percent Change: -58%
[2]; pretreatment 30 min, 0.0006 wt %
  Percent Change: -93%
[2]; pretreatment 2 hr
  ED50: 0.0029 wt %
[2]; pretreatment 2 hr, 0.001 wt %
  Percent Change: -35%
[2]; pretreatment 2 hr, 0.005 wt %
  Percent Change: -53%
[2]; pretreatment 2 hr, 0.01 wt %
  Percent Change: -72%
[2]; pretreatment 4 hr
  ED50: 0.019 wt %
[2]; pretreatment 4 hr, 0.001 wt % (first line)
  Percent Change: -9%
[2]; pretreatment 4 hr, 0.1 wt %
  Percent Change: -84%
[2]; pretreatment 4 hr, 1.0 wt %
  Percent Change: -95%
[2]; pretreatment 8 hr
  ED50: 0.19 wt %
[2]; pretreatment 8 hr, 0.01 wt %
  Percent Change: -5%
[2]; pretreatment 8 hr, 0.05 wt %
  Percent Change: -33%
[2]; pretreatment 8 hr, 0.1 wt %
  Percent Change: -43%
[2]; pretreatment 8 hr, 0.5 wt %
  Percent Change: -66%
[2]; pretreatment 8 hr, 1.0 wt %
  Percent Change: -71%
[2]; topical ocular administration
  onset and duration of action: rapid onset and an acceptable duration of action
[2]; topical, 0.5 h
  times more potent than antazoline: ~5813 times
[2]; [4]
  potency compared to pyrilamine: approximately equipotent
  times more potent than antazoline: 17 times
  times more potent than ketotifen: 3 times
  times more potent than pheniramine: 8 times
